Experimental data from patent US8063225B2, “Tricyclic compound derivatives useful in the treatment of neoplastic diseases, inflammatory disorders and immunomodulatory disorders” (Chembridge Corporation, priority 2006, dated 2011).
pIC50: −log10 of the molar value.

Experiments:
[1] = biological target: T1, IGF1R tyrosine kinase (Homo sapiens, UniProt P08069); experiment: IGF1R tyrosine kinase assay (Kinase-Glo ATP depletion or PT66/PT100 AlphaScreen); conditions: biochemical tyrosine kinase assay
T1 construct: 6×His- or GST-tagged kinase domain fragments of the corresponding RTKs expressed in baculovirus system; host or cells: baculovirus system
T1 sequence (P08069 999-1274 limits assumed): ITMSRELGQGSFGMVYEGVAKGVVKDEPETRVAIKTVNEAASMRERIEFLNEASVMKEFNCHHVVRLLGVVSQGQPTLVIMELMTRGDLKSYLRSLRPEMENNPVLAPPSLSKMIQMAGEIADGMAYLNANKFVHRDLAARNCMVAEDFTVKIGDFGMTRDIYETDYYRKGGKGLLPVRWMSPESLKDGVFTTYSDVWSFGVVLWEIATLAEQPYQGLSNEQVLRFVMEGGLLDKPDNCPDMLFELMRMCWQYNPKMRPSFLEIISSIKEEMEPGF
In short: (§1)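 Recombinant His- or GST-tagged kinase domains from baculovirus were assayed with poly(Glu-Tyr, 4:1) substrate and 10 μM ATP in Tris-HCl pH 7.5 with Mg2+/Mn2+. Kinase-Glo: 37° C for 60 minutes, residual ATP read by luminescence. IC50 from non-linear regression over eight concentrations, 1 nM to 20 μM.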

[2] = biological target: T2, InsR (Homo sapiens, UniProt P06213); experiment: Tyrosine kinase assay (Kinase-Glo or AlphaScreen), InsR; conditions: biochemical tyrosine kinase assay
T2 construct: 6×His- or GST-tagged kinase domain fragments of the corresponding RTKs expressed in baculovirus system; host or cells: baculovirus system
T2 sequence (P06213 1023-1298 limits assumed, species assumed): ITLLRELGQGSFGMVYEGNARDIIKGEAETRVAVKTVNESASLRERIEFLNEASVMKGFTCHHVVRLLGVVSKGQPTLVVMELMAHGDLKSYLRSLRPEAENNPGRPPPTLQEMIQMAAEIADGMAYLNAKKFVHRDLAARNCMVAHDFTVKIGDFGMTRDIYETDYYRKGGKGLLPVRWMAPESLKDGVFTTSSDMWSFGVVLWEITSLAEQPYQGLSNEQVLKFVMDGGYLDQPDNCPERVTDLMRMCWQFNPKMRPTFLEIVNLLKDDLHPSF
In short: as §1

[3] = biological target: T3, Alk (Homo sapiens, UniProt Q9UM73); experiment: Tyrosine kinase assay (Kinase-Glo or AlphaScreen), Alk; conditions: biochemical tyrosine kinase assay
T3 construct: 6×His- or GST-tagged kinase domain fragments of the corresponding RTKs expressed in baculovirus system; host or cells: baculovirus system
T3 sequence (Q9UM73 1116-1392 limits assumed, species assumed): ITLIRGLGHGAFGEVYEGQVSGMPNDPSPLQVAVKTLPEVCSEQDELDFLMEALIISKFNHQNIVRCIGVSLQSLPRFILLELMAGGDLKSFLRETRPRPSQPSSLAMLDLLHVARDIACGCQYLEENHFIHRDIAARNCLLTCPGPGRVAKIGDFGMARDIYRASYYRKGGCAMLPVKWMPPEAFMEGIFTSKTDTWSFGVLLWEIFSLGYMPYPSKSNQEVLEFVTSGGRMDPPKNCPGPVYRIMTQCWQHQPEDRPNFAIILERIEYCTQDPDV
In short: as §1

[4] = biological target: T4, Jak2 (Homo sapiens, UniProt O60674); experiment: Tyrosine kinase assay (Kinase-Glo or AlphaScreen), Jak2; conditions: biochemical tyrosine kinase assay
T4 construct: 6×His- or GST-tagged kinase domain fragments of the corresponding RTKs expressed in baculovirus system; host or cells: baculovirus system
T4 sequence (O60674 849-1124 limits assumed, species assumed): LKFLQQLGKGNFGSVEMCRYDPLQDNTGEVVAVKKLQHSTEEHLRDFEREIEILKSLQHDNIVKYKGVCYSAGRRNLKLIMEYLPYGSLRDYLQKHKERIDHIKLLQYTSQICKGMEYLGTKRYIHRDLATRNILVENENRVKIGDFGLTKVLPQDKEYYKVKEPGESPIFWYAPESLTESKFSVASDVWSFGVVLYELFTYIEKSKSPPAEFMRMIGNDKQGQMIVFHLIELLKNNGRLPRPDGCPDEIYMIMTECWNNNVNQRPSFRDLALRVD
In short: as §1

[5] = test system: H929 (multiple myeloma); experiment: Cell proliferation inhibition, Cell Titer-Glo, H929; assay type: cell-based; conditions: Homo sapiens, NCI-H929; cell proliferation assay, H929 cells
Protocol: IGF1R and other tyrosine kinase inhibitors can inhibit the proliferation of certain cancer cell lines indicating their possible therapeutic utility for treating the corresponding cancer types. Cancer cell lines of interest and control normal lines, including CHO, HEK293, BA/F3, MM1, H929, COLO205, PC3, DU145, MCF7, Panc1, ACHN, Hep G2, H460, K562, TT, U87-G, CAOV-3, SK-MEL5, Karpas 299, are plated in white, clear-bottomed 384-well cell culture plates at 2500-5000 cells per well and supplied with dilutions of tested compounds After a desired period of time (typically 3 days), the number of viable cells is quantitated by using Cell Titer-Glo Luminescent Cell Viability Assay (Promega), a cell proliferation assay system based on detection of total amount of ATP present as a measure of cell metabolic activity. The plated cells are mixed with the Cell Titer-Glo developing reagent and counted in a luminescence multiwell plate reader according to the standard manufacturer's protocol to generate IC50 curves for cell proliferation inhibition.
IGF1R and other tyrosine kinase inhibitors can inhibit the proliferation of certain cancer cell lines indicating their possible therapeutic utility for treating the corresponding cancer types. Cancer cell lines of interest and control normal lines, including CHO, HEK293, BA/F3, COLO205, PC3, DU145, MCF7, Panc1, ACHN, Hep G2, H460, K562, TT, U87-MG, CAOV-3, SK-MEL5, Karpas 299 and human multiple myeloma cell lines H929, MM1s, MM1r, UTMC2, CPM2, KMS11, My5, KMS12PE, My7, JJN3, KMS18, U266, SKMM2, RPMI-8226 are plated in white, clear-bottomed 384-well cell culture plates at 2500-5000 cells per well and supplied with dilutions of tested compounds After a desired period of time (typically 3 days), the number of viable cells is quantitated by using Cell Titer-Glo Luminescent Cell Viability Assay (Promega), a cell proliferation assay system based on detection of total amount of ATP present as a measure of cell metabolic activity. The plated cells are mixed with the Cell Titer-Glo developing reagent and counted in a luminescence multiwell plate reader according to the standard manufacturer's protocol to generate IC50 curves for cell proliferation inhibition. Results are typically reported as percent of growth (% viability =(OD72h(compound)−ODday0))/(OD72h(no compound)−ODday0). Alternatively, viable cells are quantitated by using the conventional colorimetric MTT assay. The MTT assay is based on the cleavage of the yellow tetrazolium salt MTT to purple formazan crystal by metabolic active cells. The formazan is then solubilized, and the concentration determined by optical density at 570 nm. The cells plated and incubated with a compound as described above are supplemented with the solution of MTT and incubated for 2-3 hours. The growth medium is removed and dimethyl sulfoxide is added into each well to dissolve the formazan. The absorbance is measured on an ELISA plate reader with a test wavelength of 570 nm and a background subtraction wavelength of 630 nm to obtain sample signal (OD570-OD630). […] The results are reported in terms of IC50 value for a particular compound and a cell line in the standard 3-day proliferation assay using Cell Titer-Glo. […] The results are reported in terms of IC50 value for a particular compound and a cell line in the standard 3-day proliferation assay using MTT assay.

[6] = test system: Ba/F3; experiment: Cell proliferation inhibition, Cell Titer-Glo, Ba/F3; assay type: cell-based; conditions: Mus musculus, BaF3; cell proliferation assay, Ba/F3 cells
In short: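 Ba/F3 cells were seeded at 2500-5000 cells per well in white, clear-bottomed 384-well culture plates and exposed to serial dilutions of test compounds for 3 days. Cell Titer-Glo Luminescent Cell Viability Assay (Promega) reagent, which measures total ATP as an indicator of metabolic activity, was added. Luminescence was read on a multiwell plate reader to derive IC50 values for inhibition of proliferation.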

[7] = test system: Karpas-299; experiment: Cell proliferation inhibition, Cell Titer-Glo, Karpas-299; assay type: cell-based; conditions: Homo sapiens; cell proliferation assay, Karpas-299 cells
In short: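 Karpas 299 cells were seeded into white, clear-bottomed 384-well culture plates at 2500-5000 cells per well and exposed to serial dilutions of test compounds for about 3 days. Viable cell numbers were then measured with the Cell Titer-Glo Luminescent Cell Viability Assay (Promega), which detects total ATP, and IC50 values for proliferation inhibition were derived.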

[8] = test system: K562; experiment: Cell proliferation inhibition, Cell Titer-Glo, K562; assay type: cell-based; conditions: Homo sapiens; cell proliferation assay, K562 cells
In short: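 K562 cells were seeded at 2500-5000 cells per well in white, clear-bottomed 384-well culture plates and treated with dilutions of test compounds for typically 3 days. Viable cells were quantified with the Cell Titer-Glo Luminescent Cell Viability Assay (Promega), which measures total ATP, read on a luminescence plate reader to derive IC50 values for proliferation inhibition.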

Row | SMILES | pIC50 [1] | pIC50 [2] | pIC50 [3] | pIC50 [4] | pIC50 [5] | pIC50 [6] | pIC50 [7] | pIC50 [8]
1 | COc1cc(C#N)ccc1OC[C@H](O)CNc1ccnc(O)c1-c1nc2cc3c(cc2[nH]1)C(=O)N(C1CCN(C)CC1)C3=O [compound 90] | 4.82 to 5.30 | 4.82 to 5.30 | < 4.82 | 5.30 to 6.30 | 4.82 to 5.30 | 4.82 to 5.30 | 5.30 to 6.30 | 5.30 to 6.30
2 | Cc1ccc(OC[C@H](O)CNc2cc[nH]c(=O)c2-c2nc3cc4c(cc3[nH]2)C(=O)N(CCCN2CCCC2)C4=O)c2c1CCC2 [compound 114] | > 6.30 | > 6.30 | 5.30 to 6.30 | 5.30 to 6.30 | < 4.82 | < 4.82 | < 4.82 | < 4.82
3 | CN1CCC(N2C(=O)c3cc4nc(-c5c(N[C@@H](CO)Cc6c[nH]cn6)cc[nH]c5=O)[nH]c4cc3C2=O)CC1 [compound 3] | 5.30 to 6.30 | 5.30 to 6.30 | 4.82 to 5.30 | < 4.82 | 4.82 to 5.30 | < 4.82 | 4.82 to 5.30 | 4.82 to 5.30
4 | O=C1c2cc3nc(-c4c(NC[C@@H](O)COc5c(F)ccc(Cl)c5F)cc[nH]c4=O)[nH]c3cc2C(=O)N1C1CCN(CCCO)CC1 [compound 136] | > 6.30 | 5.30 to 6.30 | 5.30 to 6.30 | 5.30 to 6.30 | < 4.82 | < 4.82 | < 4.82 | < 4.82
5 | COC[C@@H](C)N1C(=O)c2cc3nc(-c4c(NC[C@@H](O)c5cccc(Cl)c5)cc[nH]c4=O)[nH]c3cc2C1=O [compound 30] | < 4.82 | < 4.82 | < 4.82 | < 4.82 | < 4.82 | < 4.82 | < 4.82 | < 4.82
6 | Cc1ccc(OC[C@H](O)CNc2cc[nH]c(=O)c2-c2nc3cc4c(cc3[nH]2)C(=O)N(C2CCN(CCO)CC2)C4=O)c(C)c1 [compound 123] | > 6.30 | 5.30 to 6.30 | 5.30 to 6.30 | 5.30 to 6.30 | < 4.82 | < 4.82 | < 4.82 | < 4.82
7 | COc1ccc(OCC(O)CNc2cc[nH]c(=O)c2-c2nc3cc4c(cc3[nH]2)C(=O)N(C2CCN(C)CC2)C4=O)cc1 (centres unmarked) [compound 42] | > 6.30 | 5.30 to 6.30 | 4.82 to 5.30 | 4.82 to 5.30 | 4.82 to 5.30 | < 4.82 | < 4.82 | 4.82 to 5.30
8 | CN1CCC(N2C(=O)c3cc4nc(-c5c(NC[C@@H](O)COc6ccc7c8c6CCCN8CCC7)cc[nH]c5=O)[nH]c4cc3C2=O)CC1 [compound 86] | 5.30 to 6.30 | 4.82 to 5.30 | 5.30 to 6.30 | 5.30 to 6.30 | < 4.82 | < 4.82 | 4.82 to 5.30 | 4.82 to 5.30
9 | O=C1c2cc3nc(-c4c(NC[C@@H](O)c5cccc(Cl)c5)cc[nH]c4=O)[nH]c3cc2C(=O)N1CCCN1CCCC1 [compound 35] | > 6.30 | > 6.30 | 5.30 to 6.30 | 5.30 to 6.30 | 4.82 to 5.30 | < 4.82 | < 4.82 | < 4.82
10 | Cc1ccc(OC[C@H](O)CNc2cc[nH]c(=O)c2-c2nc3cc4c(cc3[nH]2)C(=O)N(CC(C)(C)CN(C)C)C4=O)c(C)c1 [compound 116] | > 6.30 | > 6.30 | 4.82 to 5.30 | 5.30 to 6.30 | < 4.82 | < 4.82 | 4.82 to 5.30 | < 4.82
11 | Cc1c(Cl)cccc1OC[C@H](O)CNc1cc[nH]c(=O)c1-c1nc2cc3c(cc2[nH]1)C(=O)N(CC(C)(C)CN(C)C)C3=O [compound 117] | > 6.30 | > 6.30 | 4.82 to 5.30 | 5.30 to 6.30 | < 4.82 | < 4.82 | 4.82 to 5.30 | < 4.82
12 | Cc1ccc(OC[C@H](O)CNc2cc[nH]c(=O)c2-c2nc3cc4c(cc3[nH]2)C(=O)N(C2CCN(CCCO)CC2)C4=O)c(C)c1 [compound 129] | > 6.30 | > 6.30 | 5.30 to 6.30 | 5.30 to 6.30 | 4.82 to 5.30 | 4.82 to 5.30 | 4.82 to 5.30 | 4.82 to 5.30
13 | Cc1c(Cl)cccc1OC[C@H](O)CNc1cc[nH]c(=O)c1-c1nc2cc3c(cc2[nH]1)C(=O)N(C1CCN(CCN(C)C)CC1)C3=O [compound 127] | > 6.30 | 5.30 to 6.30 | 5.30 to 6.30 | 5.30 to 6.30 | < 4.82 | < 4.82 | < 4.82 | < 4.82
14 | Cc1ccc(OCC(O)CNc2cc[nH]c(=O)c2-c2nc3cc4c(cc3[nH]2)C(=O)N(C2CCN(C)CC2)C4=O)cc1C (centres unmarked) [compound 104] | 5.30 to 6.30 | > 6.30 | 4.82 to 5.30 | 4.82 to 5.30 | – | < 4.82 | < 4.82 | < 4.82
15 | COc1cc(C)ccc1OC[C@H](O)CNc1ccnc(O)c1-c1nc2cc3c(cc2[nH]1)C(=O)N(C1CCN(C)CC1)C3=O [compound 54] | > 6.30 | 5.30 to 6.30 | 4.82 to 5.30 | < 4.82 | – | 4.82 to 5.30 | 4.82 to 5.30 | 4.82 to 5.30
16 | CSCc1cc(C)cc(C)c1OC[C@H](O)CNc1cc[nH]c(=O)c1-c1nc2cc3c(cc2[nH]1)C(=O)N(C1CCN(C)CC1)C3=O [compound 81] | 5.30 to 6.30 | 4.82 to 5.30 | 5.30 to 6.30 | 4.82 to 5.30 | – | 4.82 to 5.30 | 4.82 to 5.30 | < 4.82
17 | COc1cc(F)ccc1OC[C@H](O)CNc1ccnc(O)c1-c1nc2cc3c(cc2[nH]1)C(=O)N(C1CCN(C)CC1)C3=O [compound 57] | 5.30 to 6.30 | 5.30 to 6.30 | 5.30 to 6.30 | 5.30 to 6.30 | – | 5.30 to 6.30 | 4.82 to 5.30 | 4.82 to 5.30
18 | O=C1c2cc3nc(-c4c(NC[C@@H](O)c5cccc(Cl)c5)cc[nH]c4=O)[nH]c3cc2C(=O)N1CCCO [compound 44] | 5.30 to 6.30 | 5.30 to 6.30 | < 4.82 | 5.30 to 6.30 | – | < 4.82 | 4.82 to 5.30 | 4.82 to 5.30
19 | Cc1ccc(OC[C@H](O)CNc2ccnc(O)c2-c2nc3cc4c(cc3[nH]2)C(=O)N([C@H]2CCCN(C)C2)C4=O)c(C)c1 [compound 103] | > 6.30 | 4.82 to 5.30 | < 4.82 | 4.82 to 5.30 | – | 5.30 to 6.30 | 5.30 to 6.30 | 5.30 to 6.30
